Source: patent US9695154B2, “Heteroaryl inhibitors of sumo activating enzyme” (MILLENNIUM PHARMACEUTICALS, INC., priority 2013, dated 2017)

Molecular target: T1, recombinant human SAE enzyme (Homo sapiens, UniProt Q9UBT2)
T1 sequence (Q9UBT2 1-640): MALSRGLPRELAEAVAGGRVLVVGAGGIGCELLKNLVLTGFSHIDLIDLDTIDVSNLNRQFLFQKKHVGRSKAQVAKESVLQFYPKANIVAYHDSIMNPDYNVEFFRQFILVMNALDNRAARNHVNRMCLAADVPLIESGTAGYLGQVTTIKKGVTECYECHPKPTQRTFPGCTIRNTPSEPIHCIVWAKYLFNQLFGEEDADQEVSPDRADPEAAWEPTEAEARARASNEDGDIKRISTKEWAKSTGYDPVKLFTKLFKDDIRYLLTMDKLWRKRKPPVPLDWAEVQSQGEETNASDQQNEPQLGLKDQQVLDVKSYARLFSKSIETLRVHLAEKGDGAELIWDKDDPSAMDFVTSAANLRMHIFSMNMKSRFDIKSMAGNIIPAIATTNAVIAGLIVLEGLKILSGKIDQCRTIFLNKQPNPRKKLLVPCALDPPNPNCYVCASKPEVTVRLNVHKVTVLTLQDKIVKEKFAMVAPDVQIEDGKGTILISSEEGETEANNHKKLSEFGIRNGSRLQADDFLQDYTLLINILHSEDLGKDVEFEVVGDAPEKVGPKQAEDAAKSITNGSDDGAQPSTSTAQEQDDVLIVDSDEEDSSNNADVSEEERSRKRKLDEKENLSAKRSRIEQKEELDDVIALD
T1 sequence (Q9UBE0 1-346 partner): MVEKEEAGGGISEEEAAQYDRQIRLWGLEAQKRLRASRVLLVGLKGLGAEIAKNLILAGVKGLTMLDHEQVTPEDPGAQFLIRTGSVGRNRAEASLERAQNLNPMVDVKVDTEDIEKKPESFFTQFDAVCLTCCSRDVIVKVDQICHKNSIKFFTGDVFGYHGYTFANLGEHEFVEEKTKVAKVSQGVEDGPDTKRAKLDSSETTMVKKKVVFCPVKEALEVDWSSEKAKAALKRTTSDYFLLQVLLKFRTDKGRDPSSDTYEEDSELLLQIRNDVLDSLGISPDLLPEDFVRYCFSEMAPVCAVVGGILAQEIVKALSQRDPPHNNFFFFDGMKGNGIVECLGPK
Assay: SAE HTRF Enzyme Assay
Assay type: biochemical
Conditions: for IC50: class symbols A-C; for inhibition at 0.111 µM / Percent Inhibition: compound concentration 0.111 μM; for inhibition at 0.111 µM: read-out: Percent Inhibition
In short: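 Recombinant human SAE (0.11 nM) transferred Sumo-Flag (0.125 μM) to Ubc9-GST (0.01 μM) with 0.5 μM ATP in HEPES pH 7.5, MgCl2, GSH, BSA; 105 min at 24° C. EDTA stop, Eu-cryptate anti-Flag and XL-APC anti-GST added, 2 h, then HTRF read. Values given as % inhibition at one concentration or IC50.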

| SMILES | IC50 | inhibition at 0.111 µM | Percent Inhibition |
| --- | --- | --- | --- |
| CC(c1cccc(Br)n1)n1ccc(C(=O)c2cncnc2N[C@@H]2C[C@H](COS(N)(=O)=O)[C@@H](O)C2)n1 (single isomer, unassigned) [Compound I-366, [(1R,2S,4R)-4-{[5-({1-[(1S)-1-(6-bromopyridin-2-yl)ethyl]-1H-pyrazol-3-yl}carbonyl)pyrimidin-4-yl]amino}-2-hydroxycyclopentyl]methyl sulfamate or [(1R,2S,4R)-4-{[5-({1-[(1R)-1-(6-bromopyridin-2-yl)ethyl]-1H-pyrazol-3-yl}carbonyl)pyrimidin-4-yl]amino}-2-hydroxycyclopentyl]methyl sulfamate] | 10 to 100 nM | 92% |  |
| COC(C)c1cc(C(=O)c2cncnc2N[C@@H]2C[C@H](COS(N)(=O)=O)[C@@H](O)C2)nn1Cc1cccc(Br)c1 (single isomer, unassigned) [Compound I-369a, [(1R,2S,4R)-4-{[5-({1-(3-bromobenzyl)-5-[(1S)-1-methoxyethyl]-1H-pyrazol-3-yl}carbonyl)pyrimidin-4-yl]amino}-2-hydroxycyclopentyl]methyl sulfamate or [(1R,2S,4R)-4-{[5-({1-(3-bromobenzyl)-5-[(1R)-1-methoxyethyl]-1H-pyrazol-3-yl}carbonyl)pyrimidin-4-yl]amino}-2-hydroxycyclopentyl]methyl sulfamate] | < 10 nM |  | 98% |
| COC(C)c1cc(C(=O)c2cncnc2N[C@@H]2C[C@H](COS(N)(=O)=O)[C@@H](O)C2)nn1Cc1cccc(Br)c1 (single isomer, unassigned) [Compound I-369b, [(1R,2S,4R)-4-{[5-({1-(3-bromobenzyl)-5-[(1S)-1-methoxyethyl]-1H-pyrazol-3-yl}carbonyl)pyrimidin-4-yl]amino}-2-hydroxycyclopentyl]methyl sulfamate or [(1R,2S,4R)-4-{[5-({1-(3-bromobenzyl)-5-[(1R)-1-methoxyethyl]-1H-pyrazol-3-yl}carbonyl)pyrimidin-4-yl]amino}-2-hydroxycyclopentyl]methyl sulfamate] | < 10 nM |  | 98% |
| NS(=O)(=O)OC[C@H]1C[C@@H](Nc2ncncc2C(=O)c2ccn(S(=O)(=O)c3cccc(Br)c3)n2)[C@H](O)[C@@H]1O [Compound I-1, [(1R,2R,3S,4R)-4-{[5-({1-[(3-bromophenyl)sulfonyl]-1H-pyrazol-3-yl}carbonyl)pyrimidin-4-yl]amino}-2,3-dihydroxycyclopentyl]methyl sulfamate] | < 10 nM | 98% |  |
| NS(=O)(=O)OC[C@@H]1C[C@@H](Nc2ncncc2C(=O)c2ccn(Cc3cccc(Br)c3)n2)C[C@@H]1O [Compound I-2, {(1S,2S,4R)-4-[(5-{[1-(3-bromobenzyl)-1H-pyrazol-3-yl]carbonyl}pyrimidin-4-yl)amino]-2-hydroxycyclopentyl}methyl sulfamate] |  | 99% |  |
| NS(=O)(=O)OC[C@H]1C[C@@H](Nc2ncncc2C(=O)c2ccn(Cc3cccc(C(F)(F)F)n3)n2)C[C@@H]1O [Compound I-3, [(1R,2S,4R)-2-hydroxy-4-({5-[(1-{[6-(trifluoromethyl)pyridin-2-yl]methyl}-1H-pyrazol-3-yl)carbonyl]pyrimidin-4-yl}amino)cyclopentyl]methyl sulfamate] | < 10 nM | 98% |  |
| Cc1ccn(CCn2ccc(C(=O)c3cncnc3N[C@@H]3C[C@H](COS(N)(=O)=O)[C@@H](O)[C@H]3O)n2)n1 [Compound I-4, [(1R,2R,3S,4R)-2,3-dihydroxy-4-{[5-({1-[2-(3-methyl-1H-pyrazol-1-yl)ethyl]-1H-pyrazol-3-yl}carbonyl)pyrimidin-4-yl]amino}cyclopentyl]methyl sulfamate] | 10 to 100 nM | 80% |  |
| NS(=O)(=O)OC[C@H]1C[C@@H](Nc2ncncc2C(=O)c2ccn(CC3=CCOCC3)c2)[C@@H](F)[C@@H]1O [Compound I-5, {(1R,2R,3R,4R)-4-[(5-{[1-(3,6-dihydro-2H-pyran-4-ylmethyl)-1H-pyrrol-3-yl]carbonyl}pyrimidin-4-yl)amino]-3-fluoro-2-hydroxycyclopentyl}methyl sulfamate] | 10 to 100 nM | 89% |  |
| Cc1cc(C(=O)c2cncnc2N[C@@H]2C[C@@H](COS(N)(=O)=O)[C@@H](O)C2)nn1Cc1cccc(Br)c1 [Compound I-6, {(1S,2S,4R)-4-[(5-{[1-(3-bromobenzyl)-5-methyl-1H-pyrazol-3-yl]carbonyl}pyrimidin-4-yl)amino]-2-hydroxycyclopentyl}methyl sulfamate] | < 10 nM | 99% |  |
| NS(=O)(=O)OC[C@H]1C[C@@H](Nc2ncncc2C(=O)c2ccn(Cc3cccc(C(F)(F)F)c3)c2)[C@@H](F)[C@@H]1O [Compound I-7, [(1R,2R,3R,4R)-3-fluoro-2-hydroxy-4-{[5-({1-[3-(trifluoromethyl)benzyl]-lH-pyrrol-3-yl}carbonyl)pyrimidin-4-yl]amino}cyclopentyl]methyl sulfamate] | < 10 nM | 99% |  |
| NS(=O)(=O)OC[C@H]1C[C@@H](Nc2ncncc2C(=O)c2ccn(Cc3cccc(Cl)n3)c2)[C@@H](F)[C@@H]1O [Compound I-8, [(1R,2R,3R,4R)-4-{[5-({1-[(6-Chloropyridin-2-yl)methyl]-1H-pyrrol-3-yl}carbonyl)pyrimidin-4-yl]amino}-3-fluoro-2-hydroxycyclopentyl]methyl sulfamate] | < 10 nM | 99% |  |
| NS(=O)(=O)OC[C@H]1C[C@@H](Nc2ncncc2C(=O)c2ccn(Cc3cccc(Br)c3)n2)C[C@@H]1O [Compound I-11, {(1R,2S,4R)-4-[(5-{[1-(3-bromobenzyl)-1H-pyrazol-3-yl]carbonyl}pyrimidin-4-yl)amino]-2-hydroxycyclopentyl}methyl sulfamate] |  | 100% |  |
| NS(=O)(=O)OC[C@H]1C[C@@H](Nc2ncncc2C(=O)c2ccn(CC#CCC3CCOCC3)n2)C[C@@H]1O [Compound I-12, [(1R,2S,4R)-2-hydroxy-4-{[5-({1-[4-(tetrahydro-2H-pyran-4-yl)but-2-yn-1-yl]-1H-pyrazol-3-yl}carbonyl)pyrimidin-4-yl]amino}cyclopentyl]methyl sulfamate] | 100 to 1000 nM | 39% |  |
| NS(=O)(=O)OC[C@H]1C[C@@H](Nc2ncncc2C(=O)c2ccn(Cc3cccc(I)c3)c2)[C@@H](F)[C@@H]1O [Compound I-13, {(1R,2R,3R,4R)-3-fluoro-2-hydroxy-4-[(5-{[1-(3-iodobenzyl)-1H-pyrrol-3-yl]carbonyl}pyrimidin-4-yl)amino]cyclopentyl}methyl sulfamate] | < 10 nM | 100% |  |
| Cc1cc(Cn2ccc(C(=O)c3cncnc3N[C@@H]3C[C@H](COS(N)(=O)=O)[C@@H](O)C3)n2)ccc1F [Compound I-14, {(1R,2S,4R)-4-[(5-{[1-(4-fluoro-3-methylbenzyl)-1H-pyrazol-3-yl]carbonyl}pyrimidin-4-yl)amino]-2-hydroxycyclopentyl}methyl sulfamate] | < 10 nM | 98% |  |
| NS(=O)(=O)OC[C@H]1C[C@@H](Nc2ncncc2C(=O)c2ccn(Cc3cccc(Br)c3)n2)[C@@H](F)[C@@H]1O [Compound I-15, {(1R,2R,3R,4R)-4-[(5-{[1-(3-bromobenzyl)-1H-pyrazol-3-yl]carbonyl}pyrimidin-4-yl)amino]-3-fluoro-2-hydroxycyclopentyl}methyl sulfamate] | < 10 nM | 98% |  |
| NS(=O)(=O)OC[C@H]1C[C@@H](Nc2ncncc2C(=O)c2ccn(Cc3c(F)ccc(F)c3F)n2)C[C@@H]1O [Compound I-16, {(1R,2S,4R)-2-hydroxy-4-[(5-{[1-(2,3,6-trifluorobenzyl)-1H-pyrazol-3-yl]carbonyl}pyrimidin-4-yl)amino]cyclopentyl}methyl sulfamate] | < 10 nM | 98% |  |
| NS(=O)(=O)OC[C@H]1C[C@@H](Nc2ncncc2C(=O)c2ccn(Cc3cc4ccccc4o3)n2)C[C@@H]1O [Compound I-17, {(1R,2S,4R)-4-[(5-{[1-(1-benzofuran-2-ylmethyl)-1H-pyrazol-3-yl]carbonyl}pyrimidin-4-yl)amino]-2-hydroxycyclopentyl}methyl sulfamate] | < 10 nM | 99% |  |
